{"source": "paper PMC8398847", "about": "“Isavuconazole: Thermodynamic Evaluation of Processes Sublimation, Dissolution and Partition in Pharmaceutically Relevant Media” (Molecules, 2021)", "key": {"[1]": {"experiment": "Solubility data modeling (modified Apelblat and van’t Hoff equations)", "source_text": "The modified Apelblat model developed for nonideal solutions is one of the most frequently used models for prediction and correlation of solubility data and can be expressed as follows:(21) lnx=A+B/T/K+Cln(T/K) where x is the compound solubility in the studied solvents, which can be determined by Equation (8); T is the absolute temperature; A, B and C are three empirical constants of the equation. The A and B values represent changes in the solution behavior as a result of the nonideality of the solute solubility, whereas C reflects the connection between the melting point and enthalpy. Despite its simple mathematical expression, this model can ensure high accuracy of prediction of the solute solubility at a variety of temperature values.\nThe van’t Hoff equation can be used to calculate the relationship between the solubility of solute and temperature. The equation can be simplified as Equation (22). (22) lnx=A+B/(T/K) where x represents the mole fraction solubility of compound. T is the absolute temperature and A, B are the regression parameters obtained using multivariable least-square method."}, "[2]": {"experiment": "PXRD analysis of bottom phases after solubility experiments", "type": "physicochemical", "details": "all the studied solvents; no solvated forms", "method": "The IVZ solubility values in buffer solutions of different acidity, ethanol, propanol, 1-octanol and hexane within the temperature range of 293.15–313.15 K were determined by the isothermal saturation method and are presented in Table 2 and Figure 5. After the solubility experiments, the bottom phases were removed from the saturated solutions and analyzed by the PXRD method.\nAfter the solubility study was complete, PXRD analysis was performed on isavuconazole powders recovered from solvents. All samples were measured at 40 kV and 40 mA using a Bruker D8 Advance diffractometer with CuKa radiation (λ = 1.5406 Å) at room temperature. Diffraction patterns for the samples were collected by changing the angle of diffraction (2θ) from 5° to 30° with a step size 0.03°."}}}
{"smiles": "C[C@@H](c1nc(-c2ccc(C#N)cc2)cs1)[C@](O)(Cn1cncn1)c1cc(F)ccc1F", "note": "[IVZ, Isavuconazole]", "values": [{"measurement": "xcal modified Apelblat equation", "setting": "[1]; 1-octanol, 293.15 K", "result": "6.2160·10^−3"}, {"measurement": "xcal van’t Hoff equation", "setting": "[1]; 1-octanol, 293.15 K", "result": "6.2245·10^−3"}, {"measurement": "xcal modified Apelblat equation", "setting": "[1]; 1-octanol, 298.15 K", "result": "7.4880·10^−3"}, {"measurement": "xcal van’t Hoff equation", "setting": "[1]; 1-octanol, 298.15 K", "result": "7.4831·10^−3"}, {"measurement": "xcal modified Apelblat equation", "setting": "[1]; 1-octanol, 303.15 K", "result": "8.9532·10^−3"}, {"measurement": "xcal van’t Hoff equation", "setting": "[1]; 1-octanol, 303.15 K", "result": "8.9416·10^−3"}, {"measurement": "xcal modified Apelblat equation", "setting": "[1]; 1-octanol, 308.15 K", "result": "10.629·10^−3"}, {"measurement": "xcal van’t Hoff equation", "setting": "[1]; 1-octanol, 308.15 K", "result": "10.623·10^−3"}, {"measurement": "xcal modified Apelblat equation", "setting": "[1]; 1-octanol, 313.15 K", "result": "12.534·10^−3"}, {"measurement": "xcal van’t Hoff equation", "setting": "[1]; 1-octanol, 313.15 K", "result": "12.551·10^−3"}, {"measurement": "xcal modified Apelblat equation", "setting": "[1]; 1-propanol, 293.15 K", "result": "7.8833·10^−3"}, {"measurement": "xcal van’t Hoff equation", "setting": "[1]; 1-propanol, 293.15 K", "result": "7.8924·10^−3"}, {"measurement": "xcal modified Apelblat equation", "setting": "[1]; 1-propanol, 298.15 K", "result": "9.5597·10^−3"}, {"measurement": "xcal van’t Hoff equation", "setting": "[1]; 1-propanol, 298.15 K", "result": "9.5750·10^−3"}, {"measurement": "xcal modified Apelblat equation", "setting": "[1]; 1-propanol, 303.15 K", "result": "11.528·10^−3"}, {"measurement": "xcal van’t Hoff equation", "setting": "[1]; 1-propanol, 303.15 K", "result": "11.542·10^−3"}, {"measurement": "xcal modified Apelblat equation", "setting": "[1]; 1-propanol, 308.15 K", "result": "13.827·10^−3"}, {"measurement": "xcal van’t Hoff equation", "setting": "[1]; 1-propanol, 308.15 K", "result": "13.830·10^−3"}, {"measurement": "xcal modified Apelblat equation", "setting": "[1]; 1-propanol, 313.15 K", "result": "16.501·10^−3"}, {"measurement": "xcal van’t Hoff equation", "setting": "[1]; 1-propanol, 313.15 K", "result": "16.475·10^−3"}, {"measurement": "xcal modified Apelblat equation", "setting": "[1]; buffer pH 1.2, 293.15 K", "result": "6.8301·10^−7"}, {"measurement": "xcal van’t Hoff equation", "setting": "[1]; buffer pH 1.2, 293.15 K", "result": "6.8234·10^−7"}, {"measurement": "xcal modified Apelblat equation", "setting": "[1]; buffer pH 1.2, 298.15 K", "result": "7.6469·10^−7"}, {"measurement": "xcal van’t Hoff equation", "setting": "[1]; buffer pH 1.2, 298.15 K", "result": "7.6519·10^−7"}, {"measurement": "xcal modified Apelblat equation", "setting": "[1]; buffer pH 1.2, 303.15 K", "result": "8.5388·10^−7"}, {"measurement": "xcal van’t Hoff equation", "setting": "[1]; buffer pH 1.2, 303.15 K", "result": "8.5488·10^−7"}, {"measurement": "xcal modified Apelblat equation", "setting": "[1]; buffer pH 1.2, 308.15 K", "result": "9.5109·10^−7"}, {"measurement": "xcal van’t Hoff equation", "setting": "[1]; buffer pH 1.2, 308.15 K", "result": "9.5164·10^−7"}, {"measurement": "xcal modified Apelblat equation", "setting": "[1]; buffer pH 1.2, 313.15 K", "result": "10.568·10^−7"}, {"measurement": "xcal van’t Hoff equation", "setting": "[1]; buffer pH 1.2, 313.15 K", "result": "10.557·10^−7"}, {"measurement": "xcal modified Apelblat equation", "setting": "[1]; buffer pH 2.0, 293.15 K", "result": "1.8489·10^−7"}, {"measurement": "xcal van’t Hoff equation", "setting": "[1]; buffer pH 2.0, 293.15 K", "result": "1.8386·10^−7"}, {"measurement": "xcal modified Apelblat equation", "setting": "[1]; buffer pH 2.0, 298.15 K", "result": "2.2301·10^−7"}, {"measurement": "xcal van’t Hoff equation", "setting": "[1]; buffer pH 2.0, 298.15 K", "result": "2.2353·10^−7"}, {"measurement": "xcal modified Apelblat equation", "setting": "[1]; buffer pH 2.0, 303.15 K", "result": "2.6872·10^−7"}, {"measurement": "xcal van’t Hoff equation", "setting": "[1]; buffer pH 2.0, 303.15 K", "result": "2.7002·10^−7"}, {"measurement": "xcal modified Apelblat equation", "setting": "[1]; buffer pH 2.0, 308.15 K", "result": "3.2354·10^−7"}, {"measurement": "xcal van’t Hoff equation", "setting": "[1]; buffer pH 2.0, 308.15 K", "result": "3.2418·10^−7"}, {"measurement": "xcal modified Apelblat equation", "setting": "[1]; buffer pH 2.0, 313.15 K", "result": "3.8914·10^−7"}, {"measurement": "xcal van’t Hoff equation", "setting": "[1]; buffer pH 2.0, 313.15 K", "result": "3.8694·10^−7"}, {"measurement": "xcal modified Apelblat equation", "setting": "[1]; buffer pH 7.4, 293.15 K", "result": "1.1915·10^−7"}, {"measurement": "xcal van’t Hoff equation", "setting": "[1]; buffer pH 7.4, 293.15 K", "result": "1.1936·10^−7"}, {"measurement": "xcal modified Apelblat equation", "setting": "[1]; buffer pH 7.4, 298.15 K", "result": "1.4708·10^−7"}, {"measurement": "xcal van’t Hoff equation", "setting": "[1]; buffer pH 7.4, 298.15 K", "result": "1.4693·10^−7"}, {"measurement": "xcal modified Apelblat equation", "setting": "[1]; buffer pH 7.4, 303.15 K", "result": "1.7998·10^−7"}, {"measurement": "xcal van’t Hoff equation", "setting": "[1]; buffer pH 7.4, 303.15 K", "result": "1.7964·10^−7"}, {"measurement": "xcal modified Apelblat equation", "setting": "[1]; buffer pH 7.4, 308.15 K", "result": "2.1840·10^−7"}, {"measurement": "xcal van’t Hoff equation", "setting": "[1]; buffer pH 7.4, 308.15 K", "result": "2.1821·10^−7"}, {"measurement": "xcal modified Apelblat equation", "setting": "[1]; buffer pH 7.4, 313.15 K", "result": "2.6294·10^−7"}, {"measurement": "xcal van’t Hoff equation", "setting": "[1]; buffer pH 7.4, 313.15 K", "result": "2.6341·10^−7"}, {"measurement": "xcal modified Apelblat equation", "setting": "[1]; ethanol, 293.15 K", "result": "0.9240·10^−2"}, {"measurement": "xcal van’t Hoff equation", "setting": "[1]; ethanol, 293.15 K", "result": "0.9213·10^−2"}, {"measurement": "xcal modified Apelblat equation", "setting": "[1]; ethanol, 298.15 K", "result": "1.1326·10^−2"}, {"measurement": "xcal van’t Hoff equation", "setting": "[1]; ethanol, 298.15 K", "result": "1.1348·10^−2"}, {"measurement": "xcal modified Apelblat equation", "setting": "[1]; ethanol, 303.15 K", "result": "1.3835·10^−2"}, {"measurement": "xcal van’t Hoff equation", "setting": "[1]; ethanol, 303.15 K", "result": "1.3883·10^−2"}, {"measurement": "xcal modified Apelblat equation", "setting": "[1]; ethanol, 308.15 K", "result": "1.6844·10^−2"}, {"measurement": "xcal van’t Hoff equation", "setting": "[1]; ethanol, 308.15 K", "result": "1.6873·10^−2"}, {"measurement": "xcal modified Apelblat equation", "setting": "[1]; ethanol, 313.15 K", "result": "2.0441·10^−2"}, {"measurement": "xcal van’t Hoff equation", "setting": "[1]; ethanol, 313.15 K", "result": "2.0379·10^−2"}, {"measurement": "xcal modified Apelblat equation", "setting": "[1]; hexane, 293.15 K", "result": "5.5187·10^−5"}, {"measurement": "xcal van’t Hoff equation", "setting": "[1]; hexane, 293.15 K", "result": "5.5171·10^−5"}, {"measurement": "xcal modified Apelblat equation", "setting": "[1]; hexane, 298.15 K", "result": "7.0549·10^−5"}, {"measurement": "xcal van’t Hoff equation", "setting": "[1]; hexane, 298.15 K", "result": "7.0584·10^−5"}, {"measurement": "xcal modified Apelblat equation", "setting": "[1]; hexane, 303.15 K", "result": "8.9506·10^−5"}, {"measurement": "xcal van’t Hoff equation", "setting": "[1]; hexane, 303.15 K", "result": "8.9572·10^−5"}, {"measurement": "xcal modified Apelblat equation", "setting": "[1]; hexane, 308.15 K", "result": "11.274·10^−5"}, {"measurement": "xcal van’t Hoff equation", "setting": "[1]; hexane, 308.15 K", "result": "11.279·10^−5"}, {"measurement": "xcal modified Apelblat equation", "setting": "[1]; hexane, 313.15 K", "result": "14.103·10^−5"}, {"measurement": "xcal van’t Hoff equation", "setting": "[1]; hexane, 313.15 K", "result": "14.099·10^−5"}, {"measurement": "solid-phase stability during solubility experiments (PXRD)", "setting": "[2]", "result": "stable"}]}
